Test results from US8932581B2, “Calcium-mediated effects of coral and methods of use thereof” (Ben Gurion University of the Negev Research and Development …, priority 2007, dated 2015).

Tested on: mesenchymal stem cells (MSCs)
Assay: Scanning Electron Micrographs of MSC density on coral biomatrices with and without calcium chelator
Type: cell-based, Mus-musculus
Conditions: incubation with the calcium chelator; FIGS. 2Aj, 2Al
Protocol: Two biomaterial derivatives were prepared, one from the hydrocoral M. dichotoma (designated MIL) and the other, for purposes of comparison, from scleractinian coral P. lutea—(designated POR). Colonies of M. dichotoma were collected from the shallow seawater zones adjacent to the Interuniversity Institute of Marine Science (IUD in Eilat, Israel, at depths of 6-8 meters. Each colony was cut into fragments and glued with epoxy resin into the tops of PVC tubes. After an adjustment period of 3 months, cloned fragments were transferred to a laboratory tank system. POR were prepared from cores drilled out from long-lived massive colonies.
Both types of skeleton were cut into blocks and bleached using a commercial hypochloride solution. After this preliminary cleaning process, samples were rinsed with distilled water and air-dried. […]
Images were acquired using an Axiovert-200 (Zeiss, Germany) inverted microscope equipped with X20 Plan-Neofluar (N.A. 0.50) and X40 LD-Acrhoplan objectives (N.A. 0.60) and a cooled CCD camera (SensiCam, PCO, USA) controlled by Metamorph (version 6.2, Universal Imaging, Downingtown, Pa.). […] Cells were counted manually, and the numbers were averaged and interpolated for 1 mm^2 of crystalline surface.

O=C(O)CN(CCOCCOCCN(CC(=O)O)CC(=O)O)CC(=O)O [EGTA, O,O′-bis(2-aminoethyl)ethyleneglycol tetraacetic acid]
local cell density on coral seeded with MSCs, effect of calcium chelator: further increased local cell density
